According to BindingDB's records for doi:10.1016/j.bmc.2008.10.023 (Polymer Functionalization Group (Ictp, Csic), 2008):

Molecular target: Peroxisome proliferator-activated receptor alpha (Homo sapiens) (UniProt Q07869)
Test: Agonist activity at human PPARalpha expressed in human MCF7 cells coexpressing TIF2 by luciferase reporter gene assay

Sequence of Peroxisome proliferator-activated receptor alpha (Homo sapiens) (Q07869 whole entry, looked up): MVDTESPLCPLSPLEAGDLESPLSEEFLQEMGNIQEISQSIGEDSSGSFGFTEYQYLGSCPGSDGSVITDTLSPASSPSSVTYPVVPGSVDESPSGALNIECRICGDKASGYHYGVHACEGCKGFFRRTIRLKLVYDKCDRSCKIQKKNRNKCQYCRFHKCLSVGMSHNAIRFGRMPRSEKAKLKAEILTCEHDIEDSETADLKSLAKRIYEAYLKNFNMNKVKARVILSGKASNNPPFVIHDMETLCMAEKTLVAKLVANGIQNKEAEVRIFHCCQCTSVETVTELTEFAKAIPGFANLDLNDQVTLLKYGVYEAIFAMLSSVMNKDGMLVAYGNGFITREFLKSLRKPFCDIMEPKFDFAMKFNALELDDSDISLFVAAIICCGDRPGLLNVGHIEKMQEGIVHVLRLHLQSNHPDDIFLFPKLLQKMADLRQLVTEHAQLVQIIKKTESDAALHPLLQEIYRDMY

Structure (SMILES)	EC50
CCCCCCCC/C=C\CCCCCCCCNC(=O)c1cc(-c2ccc(Cl)cc2)n(-c2ccccc2)n1	183 nM
CCCCCCCCCCCCCCCCNC(=O)c1cc(-c2ccc(Cl)cc2)n(-c2ccc(Cl)cc2)n1	> 10000 nM
CCCCCCCCCCCCCCCCNC(=O)c1nn(-c2ccc(Cl)cc2Cl)c(-c2ccc(Cl)cc2)c1C	> 10000 nM
CCCCCCCC/C=C\CCCCCCCCNC(=O)c1cc(-c2ccc(Cl)cc2)n(-c2ccc(Cl)cc2)n1	524 nM
CCCCCCCC/C=C\CCCCCCCCNC(=O)c1nn(-c2ccc(Cl)cc2Cl)c(-c2ccc(Cl)cc2)c1C	467 nM

Second part, the compound after the results:

EC50	Structure (SMILES)
> 10000 nM	CCCCCCCCCCCCCCCCNC(=O)c1cc(-c2ccc(Cl)cc2)n(-c2ccc(Cl)cc2Cl)n1
> 10000 nM	CCCCCCCCCCCCCCCCNC(=O)c1cc(-c2ccc(Cl)cc2)n(-c2ccccc2)n1
223 nM	CCCCCCCC/C=C\CCCCCCCCNC(=O)c1cc(-c2ccc(Cl)cc2)n(-c2ccc(Cl)cc2Cl)n1
